Test systems include HL-60(TB) leukemia; SNB-19 CNS; SF-295 CNS; 786-0 renal; EKVX NSCLC; M14 melanoma; ACHN renal; UACC-257 melanoma; HCT-15 colon; SR leukemia.
Holding throughout (test): growth of human tumour cells (NCI), 48 h

We go through four molecules from PubChem BioAssay (NCI).

SMILES strings stand for the structures. Several values for one entry are separate records, joined by “and”; a condition that tells them apart may be missing. Equal entries are not always repeated.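 Dose response: 5 concentrations. Exposure: 48 h. Format: 96-well plates. Endpoint: linear interpolation; highest concentration if not reached. GI50 marks 50% less growth. TGI is the concentration that stops growth completely.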

`COc1ccc(/C=C(/C)[N+](=O)[O-])cc1OC`: the GI50 in the assay on HL-60(TB) leukemia is 2420 nM and 2470 nM; in the assay on SNB-19 CNS, 6820 nM and 3160 nM; in the assay with SF-295 CNS, 17400 nM and 12500 nM; with 786-0 renal, 1890 nM and 1790 nM; in the assay with EKVX NSCLC, 10900 nM and 5400 nM; in the assay with M14 melanoma, 1970 nM and 1690 nM. Also, the GI50 in the assay on ACHN renal is 2180 nM and 1460 nM; in the assay on UACC-257 melanoma it was 1560 nM and 600 nM; with HCT-15 colon it was 2080 nM and 1020 nM; in the assay on SR leukemia it was 1260 nM. In addition, the TGI with HL-60(TB) leukemia was 5760 nM and 8930 nM; in the assay on SNB-19 CNS, 20000 nM and 12600 nM; with SF-295 CNS it was 32400 nM and 27100 nM; in the assay on 786-0 renal, 3390 nM and 3360 nM; in the assay on EKVX NSCLC, 28600 nM and 19800 nM; with M14 melanoma it was 3800 nM and 3420 nM. Besides, the TGI is 4190 nM and 2820 nM in the assay on ACHN renal; 2980 nM and 1920 nM in the assay on UACC-257 melanoma; 5470 nM and 2670 nM in the assay on HCT-15 colon; 7000 nM with SR leukemia.
As for `C=CCC1(C)CCCN(Cc2ccccc2)C1=O` (centres undefined), the TGI in the assay on HL-60(TB) leukemia, in the assay with SNB-19 CNS, in the assay with SF-295 CNS, in the assay with 786-0 renal, with EKVX NSCLC and with M14 melanoma was above 10000 nM in each case. In addition, the TGI with ACHN renal, in the assay on UACC-257 melanoma, in the assay with HCT-15 colon and in the assay with SR leukemia was above 10000 nM each time.
Take `Oc1c(-c2cc(C(F)(F)F)[nH]n2)cc(Cl)c(OCc2ccc(Cl)cc2)c1-c1ccc(Cl)c(C(F)(F)F)c1`: the GI50 in the assay with HL-60(TB) leukemia was 677 nM; in the assay on SNB-19 CNS it was 565 nM; with SF-295 CNS, 607 nM; in the assay on 786-0 renal, 647 nM; in the assay with EKVX NSCLC it was 795 nM; in the assay on M14 melanoma, 851 nM. Besides, the GI50 with ACHN renal is 593 nM; in the assay on UACC-257 melanoma, 1120 nM; in the assay with HCT-15 colon, 153 nM; in the assay on SR leukemia, 256 nM. Also, the TGI in the assay with HL-60(TB) leukemia turned out to be 3120 nM; in the assay on SNB-19 CNS, 6620 nM; in the assay with SF-295 CNS it was 1960 nM; in the assay with 786-0 renal, 2140 nM; in the assay with EKVX NSCLC it was 5560 nM; in the assay on M14 melanoma it was 2440 nM. Besides, the TGI with ACHN renal was 4860 nM; in the assay on UACC-257 melanoma, 3590 nM; in the assay on HCT-15 colon, 693 nM; in the assay on SR leukemia, 2990 nM.
With `Nc1n[nH]c2ccc([C@@H]3Nc4cc5c(cc4[C@H]4C6CCC(C6)[C@@H]34)C(=O)NC5)cc12` (some centres undefined), the GI50 in the assay on HL-60(TB) leukemia was 282 nM; in the assay on SNB-19 CNS it was 570 nM; in the assay on SF-295 CNS, 323 nM; in the assay with 786-0 renal it was 557 nM; with EKVX NSCLC it was 734 nM; in the assay with M14 melanoma, 287 nM. Also, the GI50 in the assay with ACHN renal is 726 nM; in the assay on UACC-257 melanoma, above 100000 nM; in the assay with HCT-15 colon, 601 nM; in the assay with SR leukemia, 149 nM. Besides, the TGI is above 100000 nM in the assay on SNB-19 CNS; above 42000 nM in the assay with SF-295 CNS; above 100000 nM in the assay with 786-0 renal; above 100000 nM in the assay with EKVX NSCLC; above 43100 nM in the assay on M14 melanoma; above 100000 nM in the assay on ACHN renal. For the same molecule, the TGI in the assay on UACC-257 melanoma, in the assay on HCT-15 colon and with SR leukemia was above 100000 nM in each case.
